Among the data in the METLIN SMRT retention time set (Domingo-Almenara et al. 2019) are RP-LC retention time values, retold here.

The nature of this data set: gradient 5% acetonitrile 3 min, to 50% in 2 min, to 85% in 15 min, held 3 min, 100 µL/min. To be noted: column: Zorbax Extend-C18 2.1 x 50 mm; eluents: water / acetonitrile, 0.1% formic acid. The essentials:
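Values are retention times taken from adduct peaks that software picked and an analyst inspected. The pure standards were run as mixtures of ~100 molecules on HPLC linked to a quadrupole time-of-flight mass spectrometer, in positive and negative ionization mode. A Zorbax Extend-C18 column (2.1 × 50 mm, 1.8 μm) was used at 100 μL/min with water and acetonitrile, each including 0.1% formic acid.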
Molecule `CCCCNC(=O)CSc1nnc(C)c2c(C)n(-c3ccccc3)nc12` gave an RP-LC retention time of 646 s. In the case of `C=CCNC(=O)C(=O)N1CCN(c2ccc(OC)cc2)CC1` it was 625 s; in that of `COC(=O)c1cc(OC)c(OC)cc1NC(=O)c1ccc(CSc2ccccc2)o1`, 1070 s; in that of `CCOc1ccc(-c2csc(NC(=O)CS(=O)(=O)c3ccc(Cl)cc3)n2)cc1`, 1070 s. Regarding `CCc1nnc(-c2ccc(S(=O)(=O)N3CCCCC3)o2)o1`, the RP-LC retention time is 824 s. With `O=C(c1cnccn1)N1CCC(N2C(=O)C(OCC3CC3)C23CCCCC3)CC1` (stereo not given) the figure was 752 s; with `Cc1noc(C2(NC(=O)c3ccc[nH]c3=O)CCCCC2)n1`, 621 s.

`CCCNC(=O)N1CCCCCC1CN1CCC(C)CC1` (stereo not given) registered an RP-LC retention time of 624 s. Consider `O=C(c1ccc(OC(F)(F)F)cc1)N1CCN(CCn2cccn2)CC1`, for which the RP-LC retention time is 582 s. With `Cc1cccc(CNC(=O)C2CCN(Cc3cn(C)c4ccc(Cl)cc34)CC2)c1`, the RP-LC retention time is 757 s.

As for `COc1ccc(C2(C(=O)NCC3Cn4cccc4C(=O)N3C)CC2)cc1` (stereo not given), the RP-LC retention time came out at 707 s. With `O=C(NCCOc1ccc(F)cc1)c1cc(-c2cccs2)n(C2CCS(=O)(=O)C2)n1` (stereo not given) the figure was 793 s; with `Cc1ccc2c(c1)N(C(=O)Cn1cccc1-c1nc(-c3ccc4c(c3)OCO4)no1)CCO2`, 1160 s; with `CC(C)N1C(=O)c2cccnc2Sc2cc(NC(=O)C3CCCO3)ccc21` (stereo not given), 729 s. In the case of `Cc1ccc(-c2cn3cccnc3n2)cc1NC(=O)c1cccc(Br)c1` it was 723 s. With `Cn1cc(CCN2CCN(S(=O)(=O)c3cccc(C#N)c3)CC2)c2cccnc21`, the RP-LC retention time came out at 608 s.

The molecule `O=C(Nc1cccnc1OC1CCNCC1)C1(c2ccccc2)CC1` showed an RP-LC retention time of 646 s. For `CC(C)n1c(=O)sc2cc(S(=O)(=O)N3CCC(C(=O)Nc4ccc(F)c(F)c4)CC3)ccc21`, the RP-LC retention time amounted to 1020 s. In the case of `COc1ccc(-c2csc(NC(=O)CCn3c(=O)oc4ccccc43)n2)cc1`, the RP-LC retention time was 940 s. In the case of `O=C(CCCOc1ccc(Cl)cc1Cl)Nc1nc(-c2ccc(Cl)cc2)cs1` it was 1300 s; in that of `COc1ccc(N2CCN(c3ncc(C(=O)O)c(C)n3)CC2)cc1`, 713 s; in that of `COc1cc2c(c(OC)c1OC)-c1ccc(OC)c(=O)cc1[C@@H](NC(=O)c1ccccc1)CC2`, 722 s. With `O=[N+]([O-])c1c(NCCCO)cc(Nc2ccc(F)cc2)c2nonc12` the figure was 676 s; with `O=C(Cn1c(=O)c(=O)n(Cc2ccc(Cl)cc2)c2ccccc21)N1CCN(c2ccccn2)CC1`, 654 s. With `COc1ccc(Cl)cc1NC(=O)N1CCC(OC2CCN(S(C)(=O)=O)CC2)CC1` the figure was 811 s; with `CC1CCN(S(=O)(=O)c2ccc(-c3nnc(C4CCC4)o3)o2)CC1`, 1030 s; with `Cc1nc(N2CCOCC2)c2c(C(=O)Nc3ccc(Br)cc3C)c(C)oc2n1`, 909 s. Regarding `CN(C(=O)c1cc2c(=O)oc3ccccc3c2n1C)c1cccc(Cl)c1`, the RP-LC retention time came to 933 s. In the case of `CCCCS(=O)(=O)NC1CCCC(OC(=O)Nc2ccc(F)cc2)C1` (stereo not given) it was 883 s. With `CCCn1c(C)cnc1CC1CCN(S(=O)(=O)c2ccc3c(c2)OCCO3)CC1` the figure was 560 s. With `O=C(Cn1cnc2c(sc3nc(-c4ccccc4)ccc32)c1=O)Nc1ccc(F)cc1Cl` the figure was 1050 s; with `Cc1ccc(Cn2nc(C(=O)NCc3ccco3)ccc2=O)cc1`, 788 s. For the molecule `CCOC(=O)C(C)NC(=O)N1CCc2cc(-c3ccc(C(=O)N4CCOCC4)cc3)ccc21` (stereo not given), the RP-LC retention time came out at 751 s. As for `COC(=O)C1=CN(c2ccccc2)c2ccc(F)cc2S1(=O)=O`, the RP-LC retention time was found to be 817 s. As to `CN(C)S(=O)(=O)c1ccc(-c2nnc(C(=O)NCc3cc(F)cc(F)c3)o2)cc1`, the RP-LC retention time was determined as 878 s.

`O=S(=O)(NCCc1noc(-c2ccccc2)n1)c1ccc2c(c1)OCCO2` yielded an RP-LC retention time of 883 s.

In the case of `CCCNC(=O)Cn1c(=O)c2cnc(-c3ccc(Cl)cc3)nc2n(C)c1=O`, the RP-LC retention time amounted to 909 s. In the case of `Cc1nn2c(CNS(=O)(=O)c3ccc(F)cc3)c(-c3ccccc3)nc2s1` it was 859 s; in that of `Cc1noc(C)c1Cc1ccc(C(=O)N2CCC3(CCC3O)CC2)o1` (stereo not given), 698 s. Take `CC1=C(c2ccccc2)S(=O)(=O)N=C1N1CCCN(C(=O)c2cc(F)ccc2F)CC1`: the RP-LC retention time was determined as 827 s. With `CCCc1nc(-c2c(C)cc(C)nc2NC(=O)c2ccc(C)cc2)no1` the figure was 893 s. With `O=C(c1csc(S(=O)(=O)N2CCC(C(=O)N3CCCCC3)CC2)c1)N1CCOCC1` the figure was 689 s; with `O=C(NCC1CCCCC1)C1CCN(C(=O)c2ncn3c2COC(c2ccc(F)cc2)C3)CC1` (stereo not given), 846 s; with `Cc1ncc2c(n1)C[C@@H]1CC[C@H]2N1C(=O)NCCc1ccccc1`, 647 s. In the case of `COc1cccc(CNC(=O)c2nnc(-c3ccc(S(=O)(=O)N4CCC(C)CC4)cc3)o2)c1` it was 1030 s. With `O=C(O)c1nnn(Cc2ccccc2F)c1-c1cccnc1`, the RP-LC retention time turned out to be 633 s. Molecule `CCOc1ncccc1C(=O)OCc1cc(-c2ccco2)on1` registered an RP-LC retention time of 927 s. With `Cc1cc(C(=O)Nc2cccc(Cl)c2)nc2ccnn12` the figure was 988 s.

Regarding `Cc1ccc(F)c(NC(=O)Nc2ccc(-c3cccc4[nH]nc(N)c34)cc2)c1`, the RP-LC retention time was 845 s. In the case of `Cc1noc(C)c1CNC(=O)Cc1ccccc1Cl` it was 725 s; in that of `CCC(C)NC(=O)Cn1c(=O)n(-c2cc(OC)cc(OC)c2)c(=O)c2ccccc21` (stereo not given), 800 s; in that of `Cc1cc(N(C)C)n2nc(CN3CCC(Cc4ccccc4)CC3)nc2n1`, 637 s. In the case of `Cc1ncsc1CN1CCc2nn(Cc3ccccc3)c(=O)n2CC1` it was 604 s.

The molecule `Cc1nnsc1C(=O)OCc1cc(-c2ccco2)on1` showed an RP-LC retention time of 850 s. In the case of `CC(C)CNC(=O)C1CCN(c2cnc(N3CCCCCC3)nc2)CC1` it was 716 s; in that of `Cn1c(=O)c(SCC(=O)NCc2cccc(Cl)c2)nc2ccccc21`, 819 s; in that of `O=C(Cc1nnc(-c2cccc(F)c2)o1)N1CCCCC1`, 630 s. For the molecule `CN1C(=O)c2ccccc2Oc2ccc(C(=O)N3CCC4(CC3)OCCO4)cc21`, the RP-LC retention time was found to be 741 s. In turn, `COC1C(=O)N(c2cccc(F)c2)C12CCN(S(=O)(=O)c1cccs1)CC2` (stereo not given) gave an RP-LC retention time of 937 s. With `C[C@H]1CN(C(=O)c2ccc(F)cc2F)C[C@@H]1c1nc(-c2ccccc2)no1` the figure was 1040 s.
